Values of other authors in patent publication US7781642B2, “Animal model having a chimeric human liver and susceptible to human hepatitis C virus infection” (KMT Hepatech, Inc., priority 2000, dated 2010).

Experiments:
HBV = settings: post needle-stick exposure; cited from earlier work
HCV = HCV patients; cited from earlier work

Row | Substance | Cases in which transmission of HBV was prevented (HBV) | Sustained response rate (HCV)
1 | Hepatitis B Immunoglobulin [HBIg] | 80% | –
2 | interferon and ribavirin | – | up to 40%
